Measured values from the NIST ThermoML archive (doi:10.1016/j.jct.2012.03.005).
Numbers after ± are expanded uncertainties.

Tests used:
[1] = 101.33 kPa, Liquid, Vibrating tube method
[2] = activity coefficient (dimensionless); of the first substance listed, at infinite dilution; xn = mol fraction of the nth substance listed; details: 101 kPa, Liquid, Chromatography, x1 = 0

Structure (SMILES) | mass density ([1]; 298.15 K) [kg/m3] | mass density ([1]; 308.15 K) [kg/m3] | mass density ([1]; 318.15 K) [kg/m3] | mass density ([1]; 328.15 K) [kg/m3] | mass density ([1]; 338.15 K) [kg/m3] | mass density ([1]; 348.15 K) [kg/m3] | mass density ([1]; 358.15 K) [kg/m3] | activity coefficient ([2]; 308.15 K) | activity coefficient ([2]; 318.15 K) | activity coefficient ([2]; 328.15 K) | activity coefficient ([2]; 338.15 K) | activity coefficient ([2]; 348.15 K) | activity coefficient ([2]; 358.15 K)
CCn1cc[n+](C)c1.CS(=O)(=O)[O-] [1-ethyl-3-methylimidazolium methanesulfonate] | 1239.96 ± 0.43 | 1233.22 ± 0.42 | 1226.51 ± 0.42 | 1219.84 ± 0.41 | 1213.2 ± 0.41 | 1206.63 ± 0.4 | 1200.08 ± 0.4 | – | – | – | – | – | –
C1CCOC1 [tetrahydrofuran] + CCn1cc[n+](C)c1.CS(=O)(=O)[O-] | – | – | – | – | – | – | – | 5.42 ± 0.37 | 5.3 ± 0.36 | 5.2 ± 0.4 | 5.1 ± 0.35 | 5 ± 0.34 | 4.91 ± 0.33
Cc1ccccc1 [toluene] + CCn1cc[n+](C)c1.CS(=O)(=O)[O-] | – | – | – | – | – | – | – | 9.13 ± 0.62 | 9.03 ± 0.62 | 8.88 ± 0.61 | 8.77 ± 0.6 | 8.65 ± 0.59 | 8.53 ± 0.58

Now from value to compound:

mass density ([1]; 298.15 K) [kg/m3] | mass density ([1]; 308.15 K) [kg/m3] | mass density ([1]; 318.15 K) [kg/m3] | mass density ([1]; 328.15 K) [kg/m3] | mass density ([1]; 338.15 K) [kg/m3] | mass density ([1]; 348.15 K) [kg/m3] | mass density ([1]; 358.15 K) [kg/m3] | activity coefficient ([2]; 308.15 K) | activity coefficient ([2]; 318.15 K) | activity coefficient ([2]; 328.15 K) | activity coefficient ([2]; 338.15 K) | activity coefficient ([2]; 348.15 K) | activity coefficient ([2]; 358.15 K) | Structure (SMILES)
– | – | – | – | – | – | – | 1.87 ± 0.13 | 1.92 ± 0.13 | 1.96 ± 0.13 | 2 ± 0.14 | 2.05 ± 0.14 | 2.09 ± 0.14 | c1ccsc1 [thiophene] + CCn1cc[n+](C)c1.CS(=O)(=O)[O-]
– | – | – | – | – | – | – | – | 0.071 ± 0.03 | 0.075 ± 0.03 | 0.079 ± 0.03 | 0.083 ± 0.03 | 0.088 ± 0.03 | O [water] + CCn1cc[n+](C)c1.CS(=O)(=O)[O-]
